Measured values as given in patent US10716769B2 (GUANGZHOU JTREAT BIOSCI. LTD., priority 2015, dated 2020).
Converted amounts (≈) assume the structure as drawn.

Experiments:
[1] = tested on: MCF7; test: MTT in vitro tumor cell inhibition; assay type: cell-based; details: 3 days
Description: An effective amount of the above compounds and/or the compositions containing the same used as an active ingredient have an effect on inhibiting the tumor cells. The present invention detects the inhibitory effect of the hydroxy-substituted benzophenone compounds on the proliferation of the in vitro cultured human tumor cells by the methylthiazolyl tetrazolium method.
The method is used to detect cell viability. […] Particles can be dissolved by dimethyl sulfoxide (DMSO) isopropyl alcohol or 10% acidified SDS (sodium dodecyl sulfate), and a microplate reader is used to measure the OD value at A570 wavelength, which indirectly reflects the number of live cells. The method is used for detection of the cytokines bioactivity, as well as anti-tumor drugs and tumor radiosensitivity and cytotoxicity test, and has the characteristics of being simple, fast, economical, sensitive and accurate and having good reproducibility and no need to use radionuclides. This method has been widely used in screening preclinical anticancer drugs and detecting the drug sensitivity of fresh tumor cells. The method is as below:
(1) The tumor cell suspension prepared by 0.25% of trypsin digestion and adjusted to a cell concentration of 10^5/ml with RPMI1640 containing 10% fetal calf serum is added to a 96-well plate with 100 μl for each well, cultured 24 hours, and then different dosages of drugs are added with 100 μl/well, for which, the negative control groups, positive control groups and withering wells are set, and 4 parallel wells are set for each group.
(2) They are continually cultured in incubator containing 5% of CO2 at 37° C. for 24 to 48 hours. MTT solution (5 g/L) is added to each well before the termination of the experiment. The OD value at A570 nm is detected by microplate reader. The OD value at A570 of the negative group without the addition of drugs is taken as a control. The cell survival rate and cell inhibition rate of drugs are calculated according to the following formula: Cell survival rate=(OD value of test group/OD value of control group)×100% Cell inhibition rate (%)=(OD value of the control group−OD value of the test group/(OD value of the control group−OD value of the blank group)
The tumor cell lines are cultured in RPMI-1640 medium containing 15% of the newborn bovine serum in a conventional manner, placed in the humidification incubator containing 5% of CO2 for being cultured at 37° C., and are observed for growth by an inverted microscope. A subculture is conducted every about 3-5 days, the cells in logarithmic growth phase are adopted to be digested with 0.25% of trypsin, and the serum-free RPMI-1640 medium is used for culturing the cell suspension; the blood counting plate makes counting, the trypan blue exclusion tests the cell activity, and the cell viability>95% is used for formal tests.
Liquid preparation: the compounds are labeled with the codes respectively, DMSO is used to dissolve each compound, the bacterial filter is used to remove bacteria, and each compound is prepared into 10^−4 g/ml, 10^−5 g/ml, 10^−6 g/ml and preserved at 4° C. for use.
MTT method: a bottle of 4-5 days old cells in the exponential growth phase are adopted to be cultured, and added with an appropriate amount of Trypsin-EDTA solution, so as to enable the adherent cells to fall off, and are prepared with 10 ml of RPMI-1640 medium containing 15% newborn bovine serum into suspensions; after stained with trypan blue, the cell number is counted on the blood counting plate to ensure that the live cells is more than 97%; the cell suspensions are diluted by the complete medium so that each […] of solution contains 5000-400000 cells; the 96-well plate is used with 200 μl of cell suspensions added into each. The 96-well plate is placed at 37° C. in 5% of CO2 containing incubator for 24 hours; the test compounds are diluted at 3 dilutions with 5 wells in parallel for each concentration; the serum-free RPMI1640 is used as the control group. […]

[2] = tested on: HPV16/18; test: HPV detection via fluorescence quantitative PCR in genital warts tissue homogenate; parameters: species or system human papillomavirus; details: for HPV16/18 virus detection, in words: 24 hours after addition into the tissue homogenate of genital warts; for HPV16/18: genital warts tissue homogenate, 37° C., 24 hours, FQ-PCR
Description: (§1) The aforesaid compounds and/or compositions containing the same are effective in killing and inhibiting HPV type 6/11 and type 16/18, which can be used for the preparation of drugs for preventing and treating viral infection of HPV, preventing and treating genital warts, flat warts, common warts, vaginitis, cervicitis and cervical erosion, cervical cancer, esophageal cancer and other cancers caused by HPV. The present invention observes the effect of active ingredients and products by the detection of the change in the amount of the HPV virus through the real-time quantitative PCR. Such method has been applied in several publications (Youling C A I, et al., Chinese STD/AIDS, 2002, 8: 2,108; Yuansheng W U, Ruijiang F A N, et al., Practical Application of Integrated Chinese and Western Medicine in Clinics, 2003, 3: 2,1).
(§2) The microemulsion obtained in example 1 is used as a test sample and saline for blank control.
(§3) The standard clinical genital warts specimens from a variety of patients after being cut off are washed with saline for removing bloods, and are cut into pieces under aseptic conditions, added with saline in 3 times of their volumes to be uniformly mixed, grinded into homogenate and placed at −40° C. for use.
(§4) Each test sample drug microemulsion and the saline of 50 μl for each are respectively added with 50 μl the genital warts tissue homogenate, and incubated at 37° C. for 24 hours; tests are performed according to the operation procedure provided by the HPV6, 11 and 16, 18 type FQ-PCR diagnostic kits provided by Da'an Gene Diagnostic Center. 0.2 ml of DNA extracted by the conventional alkaline lysis method is put into the thin-walled reaction tube, and simultaneously added with primers, F-PROBE, DNTP, DNA polymerase, buffers and the like in a certain concentration; ABI PRISM™ 7700 fluorescence quantitative PCR amplifier is used to repeat 40 circulations each with 45 s at 93° C. and 120 s at 55° C. after predegeneration at 93° C. for 2 mins; the quantitative results are automatically analyzed by the computer software to calculate the quantitative results of the initial copy number. The data are shown in Table 2 (completed by Da'an Gene Clinical Test Center).

[3] = tested on: HPV 6/11 Virus; test: as above; parameters: species or system human papillomavirus; details: for HPV 6/11 virus detection, in words: 24 hours after addition into the tissue homogenate of genital warts; for HPV 6/11 Virus: genital warts tissue homogenate, 37° C., 24 hours, FQ-PCR
Description: as §1, §2, §3, §4

[4] = tested on: HSV-I, VR733 strain; test: Inhibition of cytopathic effects of Vero cells caused by herpes virus type I; assay type: cell-based; details: Human alphaherpesvirus 1; Vero cells, CPE 48 hours, Reed-Muench; read-out: IC50 Against HSV-1
Description: Vero cells (kidney cells of African green monkey) are used as viral hosts to test the inhibition degree of the samples to the cytopathic effects of Vero cells caused by herpes virus type I and type II.
Vero cells (kidney cells of African green monkey) are used as viral hosts to test the inhibition degree of the samples to cytopathic effects of the Vero cell caused by herpes virus type I and type II.
1. Virus strains: HSV-I, VR733 strain, and HSV-II, SAV strain, which both are provided by ATCC.
2. Sample treatment: the sample is dissolved in DMSO at an appropriate concentration before use, and diluted with the culture medium 3 times at a total of 8 dilutions for test.
3. Positive control drug: acyclovir (ACV) produced by the Hubei Ke Yi pharmaceutical factory.

Row | Structure (SMILES) | Inhibitory rate % ([1]; MCF7, 10^−4 g/ml) [%] | Inhibitory rate % ([1]; MCF7, 10^−5 g/ml) [%] | Inhibitory rate, sensitivity class ([1]; MCF7, 10^−6 g/ml) | HPV16/18 virus detection, in words [2] | HPV16/18 [2] [copy/ml] | HPV 6/11 virus detection, in words [3] | HPV 6/11 Virus [3] [copy/ml] | IC50 [4] [µg/mL] | Inhibitory rate, sensitivity class ([1]; MCF7, 10^−5 g/ml)
1 | O=C(c1cc(O)c(O)cc1O)c1ccc(O)c(O)c1O | 73.19 | 35.48 | insensitive (<30% means insensitive) | can no longer be detected | 0 | can no longer be detected | 0 |  | 
2 | O=C(c1ccc(O)c(O)c1O)c1ccc(O)c(O)c1O [2,3,4,2′,3′,4′-hexahydroxybenzophenone] | 76.37 | 43.52 | insensitive (<30% means insensitive) | can no longer be detected | 0 | can no longer be detected | 0 | 28.7 (≈ 103 µM) | 
3 | O=C(c1ccccc1)c1ccc(O)c(O)c1O [2,3,4-trihydroxybenzophenone] | 78.59 | 38.60 | insensitive (<30% means insensitive) | can no longer be detected | 0 | can no longer be detected | 0 | 28.7 (≈ 125 µM) | 
4 | O=C(c1ccc(O)cc1O)c1ccc(O)cc1O [2,4,2′,4′-tetrahydroxybenzophenone] | 45.73 |  | insensitive (<30% means insensitive) | can no longer be detected | 0 | can no longer be detected | 0 | 28.7 (≈ 117 µM) | insensitive (<30% means insensitive)
